# Assay results from patent US20250099455A1, “TREATMENT FOR CONGESTIVE HEART FAILURE” (FibroGen, Inc., priority 2022, published 2025).
# Entries after “also recorded” stand apart in the source; their conditions may differ.
# Columns and labels:
# [1] = tested on: permanent myocardial ischemia induced HF; assay: Permanent myocardial ischemia induced HF; type: in vivo, rat; details: 6, 20 mg/kg daily, 4 weeks; at both doses
# [2] = tested on: congestive heart failure subsequent to myocardial infarction; assay: Rat CHF subsequent to myocardial infarction, every other day dosing (Example 1); type: in vivo
# Protocol: The effect of the compound of Formula I on cardiac function in congestive heart failure (CHF) was studied by inducing CHF subsequent to myocardial infarction (MI). Three groups of rats (n=12) were subjected to MI by 30 minute ligation of the left coronary artery followed by reperfusion. In a sham group, rats underwent a similar surgical procedure except that the left coronary artery was not occluded. Treatment with the compound of Formula I was initiated 2 days after reperfusion. In the MI groups, rats were dosed orally every other day with vehicle, 6 mg/kg or 20 mg/kg compound from day 2 to day 26 post MI. In the sham group, rats were dosed with vehicle on the same schedule. At 28 days post-MI, cardiac function, heart weight, and complete blood count (CBC) were measured. Histomorphometric analysis was performed on cardiac sections to quantify collagen deposition with picrosirius red staining (PSR), remodeling with hematoxylin and eosin staining and blood vessel number with immunohistochemistry for smooth muscle α-actin. • Male Sprague Dawley rats • Ligation of left coronary artery for 30 minutes followed by reperfusion • Post-ligation recovery for 28 days • Cardiac function 28 days after ischemia-reperfusion using a Millar pressure-volume catheter inserted in the left ventricle via the carotid artery • Record pressure-volume loops over several cardiac cycles and derived cardiac function parameters
# PK profile in rats = type: in vivo, rat
# [3] = 6 or 20 mg/kg oral QOD day 2-26 post MI, 28 days post-MI
# [4] = 6 or 20 mg/kg oral QOD day 2-26 post MI, 28 days post-MI, vs vehicle
# [5] = histomorphometry of left ventricle, QOD dosing, 28 days
smiles,measurement,setting,value
"CC(C)(CC(=O)O)NC(=O)c1nc(C#N)c2cc(Oc3ccccc3)ccc2c1O [Formula I, 3-[(1-cyano-4-hydroxy-7-phenoxy-isoquinoline-3-carbonyl)-amino]-3-methyl-butyric acid]",cardiac hypertrophy,[1],Non-significant reduction in cardiac
same,collagen deposition,[1],Non-significant reduction in cardiac
same,collagen deposition,"[2]; 6, 20 mg/kg QOD, 4 weeks",reduced; also recorded: reduction in cardiac hypertrophy
same,ESPVR slope,[2]; [3],normalized
same,circulating hemoglobin level,[2]; [3],did not produce a concomitant significant increase; also recorded: without any concomitant rise
same,other CBC parameters,[2]; [3],did not produce a concomitant significant increase in circulating hemoglobin level or have a significant effect
same,arterial elastance,[2]; [4],significantly improved
same,cardiac hypertrophy,[2]; [4],significantly improved; also recorded: significant improvement; also recorded: reduced; also recorded: reduction in cardiac hypertrophy
same,cardiac output,[2]; [4],significantly improved; also recorded: significant improvement
same,ejection fraction,[2]; [4],significantly improved; also recorded: significant improvement; also recorded: improved at both doses)
same,end-diastolic pressure,[2]; [4],significantly improved
same,end-systolic pressure,[2]; [4],significantly improved
same,end-systolic volume,[2]; [4],significantly improved; also recorded: significant improvement
same,relaxation time,[2]; [4],significantly improved; also recorded: significant improvement
same,stroke volume,[2]; [4],significantly improved; also recorded: significant improvement
same,stroke work,[2]; [4],significantly improved; also recorded: significant improvement
same,cardiac contractility,[2]; every day or every other day for 28 days,significant improvement
same,hypervascularization in the peri-infarct area,[2]; [5],significant reduction
same,left ventricular wall thinning / wall thickness,[2]; [5],prevention of ventricular wall thinning; also recorded: preserved
same,Tmax,"PK profile in rats; in vivo, oral, rat, PK summary table",5 to 6 h
same,Sex difference in PK,PK profile in rats; rat,No
same,Accumulation (after multiple dosing),"PK profile in rats; rat, 4 wk GLP TK",Yes (4 wk
same,Dose proportional,"PK profile in rats; rat, 10-150 mg/kg",Yes
same,clearance,"PK profile in rats; rat, in vivo, PK summary table",0.367 to 0.667 mL/min/kg
same,half-life,"PK profile in rats; rat, in vivo, PK summary table, mostly",5 to 6 h
same,half-life,"PK profile in rats; rat, in vivo, PK summary table, some longer",10 to 15 h
same,bioavailability,"PK profile in rats; rat, in vivo, po, rats, read-out: Oral bioavailability (Oral % F)",~78%
same,AUC(0-inf),"PK profile in rats; rat, in vivo, rats",1080 ± 328 µg·h/mL
same,AUC(0-t),"PK profile in rats; rat, in vivo, rats",1010 ± 268 µg·h/mL
same,Cmax,"PK profile in rats; rat, in vivo, rats",91 ± 12 µg/mL
same,Tmax,"PK profile in rats; rat, in vivo, rats",6.7 ± 1.2 h
same,clearance,"PK profile in rats; rat, in vivo, rats",0.367 mL/min/kg
same,half-life,"PK profile in rats; rat, in vivo, rats",5 ± 1.3 h
same,Vd,"PK profile in rats; rat, in vivo, rats, read-out: Vss",0.123 ± 0.056 L/kg
same,Accumulation (after multiple dosing),"PK profile in rats; rat, once daily dosing 2 weeks",Unclear
same,CL relative to hepatic blood flow rate,PK profile in rats; rats,lower than hepatic blow flow rate
same,Vss relative to plasma volume,PK profile in rats; rats,higher than plasma volume
